Entries after “also recorded” stand apart in the source; their conditions may differ.
Assays:
Type in all cases: cell-based, human
[1] = tested on: STAT3 nuclear translocation; assay: Immunocytochemistry for STAT3 localization in U266 cells; details: 50 μM, 60 minutes
Experimental: U266 cells were incubated alone or with curcumin (50 μM) for 60 minutes and then analyzed for the distribution of STAT3 by immunocytochemistry (originial magnification, 200X).
FIGS. 6A-C show& the effect of cell permeable STAT3 inhibitor peptide (STAT3iP) on STAT3 phosphorylation and cell viability in U266 cells. […] Results are shown as mean (±s.d. indicated by error bar) of absorbance (570 nm) of triplicate cultures compared to the untreated control.
Curcumin-treated multiple myeloma cells were plated on a glass slide by centrifugation using a Cytospin 4 (Thermoshendon, Pittsburg, Pa.), air-dried for 1 h at room temperature, and fixed with cold acetone. After a brief washing in PBS, slides were blocked with 5% normal goat serum for 1 h and then incubated with rabbit polyclonal anti-human STAT3 antibody (dilution, 1:100). After overnight incubation, the slides were washed and then incubated with goat anti-rabbit IgG-Alexa 594 (1:100) for 1 h and counter-stained for nuclei with Hoechst (50 ng/ml) for 5 min. Stained slides were mounted with mounting medium (Sigma Co.) and analyzed under an epifluorescence microscope (Labophot-2, Nikon, Tokyo, Japan). Pictures were captured using Photometrics Coolsnap CF color camera (Nikon, Lewisville, Tex.) and MetaMorph version 4.6.5 software (Universal Imaging Corp., Downingtown, Pa.). […]

[2] = tested on: STAT3 phosphorylation; assay: Constitutive STAT3 phosphorylation in MDA 1986LN cells (Western blot)
Experimental: TU167, MDA 1986LN, TU 686, MDA 686LN and JMAR cells (2×10^6 cells) were lysed and whole cell extracts (30 μg) were resolved on 7.5% SDS-PAGE, electrotransferred to a nitrocellulose membrane and probed for phosphorylated-STAT3 (p-STAT3) and total STAT3 proteins. […] MDA 1986LN cells (2×10^6 cells) were treated with curcumin (50 μM) for indicated durations or with indicated concentrations of curcumin for 1 h and levels of p-STAT3 (upper panels) and STAT3 (lower panels) were examined in whole cell extracts by Western blotting.
MDA 1986LN cells (2×10^6 cells) were treated with curcumin (50 μM) for the indicated durations (upper panels) or treated for 1 h and washed twice with PBS to remove curcumin before re-suspending in fresh medium. Cells were removed at indicated times and lysed to prepare the whole cell extract (lower panels). The whole cell extracts (30 μg) were resolved on 7.5% SDS-PAGE, electrotransferred to a nitrocellulose membrane, probed for the p-STAT3 (upper panels) and striped and reprobed for STAT3 (lower panels).
MDA 1986LN cells (2×10^6 cells) were treated with indicated concentrations of AG490 for 8 h and whole extracts prepared. These whole-cell extracts (30 μg) were resolved on 7.5% SDS-PAGE, electrotransferred to a nitrocellulose membrane, probed for p-STAT3 (upper panel), striped and reprobed for STAT3 (middle panel) and β-actin (lower panel). […] The cells were treated with AG490 (100 μM) for the indicated durations and whole cell extracts prepared and analyzed as mentioned earlier. FIG. 15C compares the effect of curcumin and AG490 on proliferation of MDA 1986LN cells by MTT assay.
Since STAT3 was constitutively phosphorylated in MDA 1986LN cells, the ability of curcumin to inhibit the constitutive STAT3 phosphorylation was examined. MDA 1986LN cells were treated either with curcumin (50 μM) for different durations or with different concentrations of curcumin for 1 h and the p-STAT3 levels and STAT3 levels were determined. Curcumin inhibited the constitutively active STAT3 in a time-(FIG. 11B) and a dose-(FIG. 11C) manner. This curcumin-induced inhibition could be observed as early as 30 min and with a concentration as low as 25 μM.
MDA 1986LN cells were treated with curcumin for indicated times or for 1 h and the cells were washed twice with PBS to remove curcumin. The cells were then cultured in media for various durations and the levels of phosphorylated STAT3 were determined. […] However, the STAT3 levels were unaffected by curcumin treatment.
The concentration and the exposure time for AG490 to inhibit STAT3 phosphorylation in MDA 1986LN cells were determined. These cells were incubated with either different concentrations of AG490 or with 100 μM of AG490 for different durations and the levels of p-STAT3 and STAT3 were assessed.

[3] = tested on: STAT3 phosphorylation; assay: Phosphorylated STAT3 in HNSCC cells (immunocytochemistry, horseradish peroxidase stain); details: 50 μM, 2 hrs
Experimental: MDA 1986LN, MDA 686LN and JMAR cells were incubated with either media alone or with curcumin (50 μM) for 2 hrs and then analyzed by immunocytochemistry using Alexa fluorochrome for the distribution of STAT3 (original magnification ×200). […] The same procedure as mentioned above was performed on the same cells and the p-STAT3 analyzed by immunocytochemistry using horse radish peroxidase stain (original magnification ×200).
To further confirm that curcumin inhibited STAT3 phosphorylation, the same curcumin-treated and untreated cells were analyzed for phosphorylated STAT3 by immunocytochemistry using horseradish peroxidase stain. […] These findings confirmed that curcumin inhibited STAT3 phosphorylation.

In the case of `COc1cc(/C=C/C(=O)CC(=O)/C=C/c2ccc(O)c(OC)c2)ccc1O` [curcumin, diferuloylmethane], the “translocation of STAT3 to the nucleus” value [1] is reported as “prevented the translocation of the STAT3 to the nucleus”, the “reversibility of inhibition of STAT3 phosphorylation” value ([2]; 50 μM 1 h then washed) is reported as “removal of curcumin resulted in gradual increase in phosphorylated STAT3” and the “earliest time at which inhibition of constitutive STAT3 phosphorylation could be observed” value ([2]; 50 μM curcumin) is reported as 30 min. The “lowest concentration at which inhibition of constitutive STAT3 phosphorylation could be observed” value ([2]; 1 h) was 25 µM, the “inhibition of constitutive STAT3 phosphorylation” value ([2]; curcumin 50 μM, 1 h) was “inhibited the STAT3 phosphorylation completely; also recorded: completely inhibit” and the “overall expression / levels of STAT3 protein” value ([2]; curcumin treatment) was “did not alter the overall expression of STAT3 protein; also recorded: unaffected”. The “phosphorylation of STAT3 (immunocytochemistry)” value ([3]; JMAR cells) was “no inhibition of STAT3 phosphorylation was observed” and the “phosphorylation of STAT3 (immunocytochemistry)” value ([3]; MDA 1986LN and MDA 686LN cells) was “inhibited the phosphorylation of STAT3”.
